Among the test systems are UACC-257; MOLT-4; OVCAR-4; SK-OV-3; CCRF-CEM; SK-MEL-28; NCI-H522; OVCAR-3; UO-31; TK-10; HT-29; HCT-15; HL-60; NCI/ADR-RES; SK-MEL-5; LOX IMVI; SNB-19; SF-295; RXF 393; A498.
Test in all cases: NCI-60 cell line screen, 48 h

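Five compound concentrations were applied to cells in 96-well plates for 48 hours; endpoints were derived by simple linear interpolation of the resulting dose-response curve. At the GI50, growth is halved.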 Calls of active or inactive are those of the source. Rule as the data show it: active = GI50 up to about 1.1 µM and inactive = higher.

Turning to `COc1ccc(C(=C2C=CC=C2)c2ccc(OC)cc2)cc1`, the GI50 was 34.4 µM (inactive) in the experiment with UACC-257; 14.5 µM (inactive) in the experiment on MOLT-4; > 100 µM (inactive) with OVCAR-4; 18.2 µM (inactive) in the experiment with SK-OV-3; 21.9 µM (inactive) in the experiment with CCRF-CEM; 53.5 µM (inactive) in the experiment on SK-MEL-28. Besides, the GI50 in the experiment on NCI-H522 was 19.3 µM (inactive); in the experiment with OVCAR-3 it was 47.1 µM (inactive); in the experiment on UO-31 it was 28.5 µM (inactive); in the experiment on TK-10, 50.4 µM (inactive); in the experiment on HT-29, 24 µM (inactive); in the experiment on HCT-15, 25.5 µM. For the same compound, the GI50 is 36.4 µM (inactive) with HL-60; 47.3 µM (inactive) with NCI/ADR-RES; 30.2 µM (inactive) in the experiment with SK-MEL-5; 17.2 µM (inactive) in the experiment with LOX IMVI; 28 µM (inactive) in the experiment with SNB-19; 16.9 µM (inactive) in the experiment on SF-295. Also, the GI50 in the experiment with RXF 393 was 25.2 µM (inactive).
On to `C#CCNC(=O)CCC(N)C(=O)O` (stereo not drawn), for which the GI50 in the experiment on UACC-257, in the experiment with MOLT-4, in the experiment on OVCAR-4, in the experiment on SK-OV-3, with A498 and in the experiment with CCRF-CEM was > 100 µM (inactive) each time. The GI50 is > 100 µM (inactive) with SK-MEL-28; > 100 µM (inactive) with NCI-H522; > 100 µM (inactive) in the experiment with OVCAR-3; > 100 µM (inactive) in the experiment on UO-31; > 100 µM (inactive) with HT-29; above 100 µM in the experiment with HCT-15. Besides, the GI50 in the experiment with HL-60, in the experiment on NCI/ADR-RES, in the experiment with SK-MEL-5, with LOX IMVI, in the experiment on SNB-19 and with SF-295 was > 100 µM (inactive) in each case. Also, the GI50 with RXF 393 is > 100 µM (inactive).
For `CCOC(=O)C1(C(C)=O)OC(=O)c2cnccc21` (stereo not drawn), the GI50 in the experiment on UACC-257, with MOLT-4, in the experiment with SK-OV-3, with A498, with CCRF-CEM and in the experiment with SK-MEL-28 was > 100 µM (inactive) in each case. Besides, the GI50 in the experiment on NCI-H522 is > 100 µM (inactive); in the experiment with OVCAR-3 it was > 100 µM (inactive); in the experiment with UO-31, > 100 µM (inactive); in the experiment with HT-29, > 100 µM (inactive); in the experiment on HCT-15, above 100 µM; in the experiment with HL-60, > 100 µM (inactive). Besides, the GI50 with NCI/ADR-RES, with SK-MEL-5, in the experiment with LOX IMVI, in the experiment with SNB-19, with SF-295 and with RXF 393 was > 100 µM (inactive) each time.
As to `CN(C)/N=C(/CC(O)(C(F)(F)F)C(F)(F)F)c1ccc([N+](=O)[O-])cc1`, the GI50 in the experiment with UACC-257, with MOLT-4, in the experiment with OVCAR-4, in the experiment on SK-OV-3, in the experiment with A498 and with CCRF-CEM was > 100 µM (inactive) throughout. The GI50 with SK-MEL-28 was > 100 µM (inactive); with NCI-H522, > 100 µM (inactive); in the experiment on OVCAR-3 it was > 100 µM (inactive); with UO-31, 98.6 µM (inactive); in the experiment with HT-29, > 100 µM (inactive); with HCT-15, above 100 µM. The GI50 in the experiment with HL-60, with NCI/ADR-RES, with SK-MEL-5, with LOX IMVI, in the experiment on SNB-19 and in the experiment on SF-295 was > 100 µM (inactive) each time. Further, the GI50 in the experiment on RXF 393 is > 100 µM (inactive).
As for `COP(=O)(OC)C(Cc1c[nH]c2ccccc12)NC(=O)OCc1ccccc1` (stereo not drawn), the GI50 in the experiment on UACC-257 is > 100 µM (inactive); in the experiment on OVCAR-4, 91 µM (inactive); in the experiment with SK-OV-3, > 100 µM (inactive); in the experiment with A498, > 100 µM (inactive); in the experiment with CCRF-CEM it was 5.89 µM (inactive); in the experiment with SK-MEL-28, > 100 µM (inactive). The GI50 in the experiment on NCI-H522 was > 100 µM (inactive); in the experiment with OVCAR-3, 40.5 µM (inactive); with UO-31 it was > 100 µM (inactive); in the experiment on TK-10, > 100 µM (inactive); in the experiment on HT-29 it was > 100 µM (inactive); in the experiment on HCT-15 it was above 100 µM. Besides, the GI50 with HL-60, with NCI/ADR-RES, in the experiment with SK-MEL-5, with LOX IMVI, with SNB-19 and in the experiment on SF-295 was > 100 µM (inactive) in each case.
Regarding `C[C@H](N)C(=O)N[C@@H]1[C@H]2C(=C(O)C[C@@H](O)[C@@H]2O)C(=O)O[C@@H]1C`, the GI50 with UACC-257 is > 100 µM (inactive); with MOLT-4, > 100 µM (inactive); in the experiment on OVCAR-4, > 100 µM (inactive); in the experiment with SK-OV-3 it was > 100 µM (inactive); in the experiment on A498, > 100 µM (inactive); with CCRF-CEM, > 53.8 µM (inactive). Moreover, the GI50 in the experiment on SK-MEL-28 is > 100 µM (inactive); in the experiment with NCI-H522 it was > 100 µM (inactive); with OVCAR-3 it was > 100 µM (inactive); with UO-31, > 100 µM (inactive); in the experiment on HT-29, > 100 µM (inactive); in the experiment with HCT-15 it was above 100 µM. In addition, the GI50 in the experiment on HL-60 was > 80.4 µM (inactive); in the experiment with NCI/ADR-RES, > 100 µM (inactive); in the experiment on SK-MEL-5, > 100 µM (inactive); in the experiment with LOX IMVI, > 100 µM (inactive); in the experiment with SNB-19, 77.4 µM (inactive); in the experiment with SF-295, > 100 µM (inactive). The GI50 in the experiment on RXF 393 is > 100 µM (inactive).
With `CCOC(=O)C1=C(C)N(c2ccc(Cl)cc2)C2(O)C=CC(Nc3ccc(Cl)cc3)=C3C(=O)N(c4ccccc4)C(=O)C312` (stereo not drawn), the GI50 with UACC-257 was 13.3 µM (inactive); in the experiment on MOLT-4, 2.12 µM (inactive); in the experiment with OVCAR-4, 3.15 µM (inactive); with SK-OV-3, 8.85 µM (inactive); in the experiment on A498 it was 1.83 µM (inactive); in the experiment with CCRF-CEM, 1.64 µM (inactive). Further, the GI50 was 2.36 µM (inactive) in the experiment with SK-MEL-28; 1.34 µM (inactive) with NCI-H522; 0.313 µM (active) in the experiment with OVCAR-3; 4.89 µM (inactive) with UO-31; 13.6 µM (inactive) in the experiment on TK-10; 3.66 µM (inactive) in the experiment with HT-29. In addition, the GI50 in the experiment on HCT-15 is 3.45 µM; with HL-60 it was 2.97 µM (inactive); with NCI/ADR-RES it was 2.75 µM (inactive); with SK-MEL-5 it was 2.39 µM (inactive); in the experiment on LOX IMVI it was 1.67 µM (inactive); in the experiment on SNB-19, 5.68 µM (inactive). Moreover, the GI50 with SF-295 is 3.18 µM (inactive).
Consider `CC1=Nc2nc(Cl)cn2C(=O)C1(Cl)Cl`, for which the GI50 in the experiment with MOLT-4, in the experiment on OVCAR-4, in the experiment on SK-OV-3, in the experiment on A498, in the experiment with CCRF-CEM and with SK-MEL-28 was > 10 µM (inactive) throughout. The GI50 with NCI-H522 was > 10 µM (inactive); in the experiment on OVCAR-3, > 10 µM (inactive); in the experiment with UO-31, > 10 µM (inactive); in the experiment with TK-10, > 10 µM (inactive); in the experiment with HT-29 it was > 10 µM (inactive); in the experiment with HCT-15, above 10 µM. The GI50 with HL-60, in the experiment with NCI/ADR-RES, with SK-MEL-5, in the experiment with LOX IMVI, in the experiment with SNB-19 and in the experiment on SF-295 was > 10 µM (inactive) throughout. For the same compound, the GI50 in the experiment on RXF 393 is > 10 µM (inactive).
As to `C/C(N)=N/OCc1nc(C)no1`, the GI50 in the experiment on UACC-257, in the experiment with MOLT-4, in the experiment on OVCAR-4, in the experiment with SK-OV-3, in the experiment on CCRF-CEM and with SK-MEL-28 was > 100 µM (inactive) in each case. Besides, the GI50 was > 100 µM (inactive) with NCI-H522; > 100 µM (inactive) in the experiment with OVCAR-3; > 100 µM (inactive) in the experiment on UO-31; > 100 µM (inactive) with TK-10; > 100 µM (inactive) in the experiment with HT-29; above 100 µM in the experiment on HCT-15. The GI50 with HL-60, with NCI/ADR-RES, in the experiment with SK-MEL-5, with SNB-19, in the experiment on SF-295 and in the experiment with RXF 393 was > 100 µM (inactive) throughout.
`Oc1[nH]c(Nc2cccc(Br)c2)nc2ncnc1-2`: the GI50 is > 100 µM (inactive) in the experiment on UACC-257; > 100 µM (inactive) with MOLT-4; 15.5 µM (inactive) with OVCAR-4; > 100 µM (inactive) in the experiment on SK-OV-3; 54.7 µM (inactive) in the experiment with CCRF-CEM; > 100 µM (inactive) with SK-MEL-28. Moreover, the GI50 in the experiment with NCI-H522 was > 100 µM (inactive); in the experiment on OVCAR-3 it was 89.5 µM (inactive); in the experiment with UO-31, > 100 µM (inactive); in the experiment on TK-10, 87.1 µM (inactive); in the experiment with HT-29, 82.6 µM (inactive); in the experiment on HCT-15 it was above 100 µM. In addition, the GI50 in the experiment with HL-60 is 11.6 µM (inactive); in the experiment on NCI/ADR-RES, > 100 µM (inactive); in the experiment on SK-MEL-5, > 100 µM (inactive); in the experiment with LOX IMVI it was > 100 µM (inactive); in the experiment with SNB-19 it was 71.8 µM (inactive); in the experiment on SF-295 it was > 100 µM (inactive). For the same compound, in the experiment with RXF 393, the GI50 was > 100 µM (inactive).
Consider `Nc1ccn(C2OC(CO)C(O)C2O)c(=O)c1` (stereo not drawn), for which the GI50 in the experiment on OVCAR-4 is 285 µM (inactive); in the experiment on SK-OV-3, > 625 µM (inactive); in the experiment with CCRF-CEM, > 625 µM (inactive); with SK-MEL-28 it was > 625 µM (inactive); in the experiment with NCI-H522, > 625 µM (inactive); in the experiment on OVCAR-3, > 625 µM (inactive). The GI50 is 360 µM (inactive) in the experiment on UO-31; 270 µM (inactive) with HT-29; above 625 µM with HCT-15; 239 µM (inactive) with HL-60; 180 µM (inactive) in the experiment on NCI/ADR-RES; > 625 µM (inactive) in the experiment with SK-MEL-5. Also, the GI50 is 143 µM (inactive) in the experiment with LOX IMVI, > 625 µM (inactive) in the experiment on SNB-19, > 625 µM (inactive) in the experiment on SF-295 and 348 µM (inactive) in the experiment with RXF 393.

The values are drawn from ChEMBL document CHEMBL1201862, “PubChem BioAssay data set” (2004).
